From patent US8501233B2, “Compositions and methods for treating cancer” (Wake Forest University, priority 2007, dated 2013)

Tests used:
RKO cells [1] = experiment: Cell death of RKO cells with Mitomycin C compositions, MTS assay (Example 7); type: cell-based, human; conditions: MMC 40 μM, including cells heated to 42° C.
Method: (§1) Three (3) 48 well plates containing 10,000-20,000 RKO cells/well (human colon carcinoma) were prepared for a series of experiments measuring cell death as a function of exposure to various compositions, including compositions according to some embodiments of the present invention.
(§2) RKO colorectal cancer cell lines were purchased from American Type Culture Collections (ATCC) and cultured in McCoys's media supplemented with 2.5 μg/ml of amphotericin, 1% L-glutamine, 1% penicillin/streptomycin, and 10% fetal bovine serum. Cells were seeded in wells of the appropriate trays at a density of 10,000-20,000 cells per well.
(§3) MWNTs were grown by chemical vapor deposition (CVD) using xylene as the carbon precursor and ferrocene as a catalyst at concentrations of 60 mg or 400 mg. Hydrogen and argon gases were used to flow the xylene through a preheater at 170° C. and a furnace oven at 700° C. An injection rate of 5 ml/hour for a one hour run yielded about 200 mg of carbon nanotubes.
(§4) 50 mg of the MWNTs were cut and cleaned by sonication in a mixture of 90 ml of concentrated sulfuric acid and 30 ml of concentrated nitric acid for 24 hours. The length of the nanotubes was about 2 μm as determined by transmission electron microscopy (TEM). MWNT suspensions were prepared by adding 1 mg of MWNT per 1 ml of aqueous solution comprising 0.1% by weight Pluronic 127® surfactant. […]

RKO cells [2] = experiment: Cell death of RKO cells after exposure to compositions, calorimetric assay (Example 4); type: cell-based, human; conditions: oxaliplatin 300 μM, heated to 42° C. for two hours
Method: Three (3) 48 well plates containing 20,000 RKO cells/well (human colon carcinoma) were prepared for a series of experiments measuring cell death as a function of exposure to various compositions, including compositions according to some embodiments of the present invention.
as §3
50 mg of the MWNTs were cut and cleaned by sonication in a mixture of 90 ml of concentrated sulfuric acid and 30 ml of concentrated nitric acid for 24 hours. The length of the nanotubes was about 2 μm as determined by transmission electron microscopy (TEM). MWNT suspensions were prepared by adding 1 mg of MWNT per 1 ml of aqueous solution having 0.1% by weight Pluronic 127® surfactant. The suspensions were sonicated to enhance MWNT dispersion. MWNT suspensions were diluted with water to a concentration of 100 μg MWNT/ml.
A solution comprising oxaliplatin at a concentration of 300 μM was obtained (Ox). […]
Cell death resulting from the addition of the various compositions at the three temperatures was monitored by calorimetric assay. […]

RKO cells [3] = experiment: Cell death / viability of RKO cells, MTS assay (Example 5); type: cell-based, human; conditions: oxaliplatin 300 μM, including cells heated to 42° C., MTS 48 hours after treatment
Method: as §1, with “cells/well (human colon carcinoma) and three (3) 48 well plates containing 10,000-20,000 HCT 116 cell/well” for “cells/well”
as §2, with “RKO and HCT 116” for “RKO”, “well. […]” for “well.”
50 mg of the MWNTs were cut and cleaned by sonication in a mixture of 90 ml of concentrated sulfuric acid and 30 ml of concentrated nitric acid for 24 hours. The length of the nanotubes was about 2 μm as determined by transmission electron microscopy (TEM). […]
Following incubation, the media in the wells of each of the plates was replaced with media containing MTS assay reagents from Promega's CellTiter 96® AQueous assay kit. Cell viability was quantified over a three hour period according to the manufacturers instructions.

HCT 116 cells = experiment: Cell death of HCT 116 cells, single 8 second lasing (Example 8); type: cell-based, human; conditions: oxaliplatin 300 μM, including cells heated to 42° C.
Method: Two (2) 48 well plates containing 10,000-20,000 HCT 116 cells/well (human colon carcinoma) were prepared for a series of experiments measuring cell death as a function of exposure to various compositions, including compositions according to some embodiments of the present invention.
as §2, with “HCT 116” for “RKO”
as §3, §4

[4] = tested on: HeLa cervical cancer cells; experiment: In vivo evaluation of localized hyperthermia, intraperitoneal cancer nodules in athymic mice (Example 11); conditions: Group 3 irradiated 10 seconds (42° C.), Group 2 heated 42° C. two hours, two weeks after treatment
Method: 15 athymic mice are divided equally into three treatment groups as provided in Table 13, with Group 1 receiving a treatment composition of 100 μg/ml of MWNTs, Group 2 receiving a treatment composition comprising 300 μM oxaliplatin, and Group 3 receiving a treatment composition comprising 300 μM oxaliplatin and 100 μg MWNT per ml.
Each animal of Groups 1-3 receives intraperitoneal injections of 1E6 HeLa cervical cancer cells which express folic acid receptors. […] Two weeks after the intraperitoneal injections of the cancerous cells, the intraperitoneal cavity of each animal in Groups 1-3 is exposed, and the cancer nodules photographed allowing size and number of the nodules to be recorded.
After examination and quantification of cancer nodules, two 5 ml solutions of FA functionalized MWNTs (100 μg/ml) are provided to the intraperitoneal cavity of each animal in Groups 1 and 3. […]
The animals of Groups 1-3 are allowed to recover for two weeks. […] The size and number of cancerous nodules at the time of sacrifice is compared to the initially recorded observations of size and number of cancerous nodules for each animal. Moreover, for each animal in the study, a total of about 1 to 10 mg of tumor nodule mass is retained to determine platinum content as determined by elemental analysis.

In the case of CO[C@@]12[C@H](COC(N)=O)C3=C(C(=O)C(C)=C(N)C3=O)N1C[C@@H]1N[C@@H]12 [MMC, Mitomycin C], the cell death (RKO cells [1]) is reported as “significant death”.

For O=C1[O][Pt]2([NH][C@@H]3CCCC[C@H]3[NH]2)[O]C1=O [oxaliplatin], the cell death (RKO cells [2]) was “significant”, the cell death (RKO cells [3]) was “significant death” and the cell death (HCT 116 cells) was “significant death”. For the same molecule, the “reduction in the sizes and numbers of cancerous nodules (Groups 2 and 3 compared)” value [4] was “substantially similar reduction”.
